Measurements published in ChEMBL document CHEMBL4613266, “Discovery and Structure Relationships of Salicylanilide Derivatives as Potent, Non-acidic P2X1 Receptor Antagonists” (J Med Chem, 2020).
Activity calls are given as the source filed them. No cut-off for these calls is given here.

Assays:
[1] = molecular target: T1, P2X purinoceptor 1 (Homo sapiens) (UniProt P51575); test: Antagonist activity P2X1 receptor in Apyrase pre-treated human platelets assessed as inhibition of collagen-induced platelet aggregation pre-incubated for 30 mins before collagen stimulation by aggregometry relative to control; assay type: cell-based
T1 sequence (whole entry): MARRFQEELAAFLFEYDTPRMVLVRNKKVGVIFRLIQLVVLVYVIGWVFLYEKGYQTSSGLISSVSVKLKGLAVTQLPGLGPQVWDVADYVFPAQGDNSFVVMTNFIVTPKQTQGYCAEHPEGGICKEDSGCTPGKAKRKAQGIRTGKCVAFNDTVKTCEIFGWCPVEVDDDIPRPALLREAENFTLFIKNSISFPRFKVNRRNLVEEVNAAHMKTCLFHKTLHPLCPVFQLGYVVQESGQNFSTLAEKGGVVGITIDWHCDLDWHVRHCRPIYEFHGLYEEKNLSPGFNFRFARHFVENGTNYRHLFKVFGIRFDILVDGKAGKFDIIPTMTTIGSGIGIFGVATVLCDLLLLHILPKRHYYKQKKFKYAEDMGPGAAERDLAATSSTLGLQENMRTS

[2] = molecular target: T1, P2X purinoceptor 1 (Homo sapiens); test: Antagonist activity P2X1 receptor in Apyrase pre-treated human platelets assessed as inhibition of TRAP6-induced platelet aggregation pre-incubated for 30 mins before TRAP6 stimulation by aggregometry relative to control; assay type: cell-based
[3] = molecular target: T2, P2X purinoceptor 3 (Homo sapiens) (UniProt P56373); test: Antagonist activity at human P2X3 receptor expressed in human 1321N1 cells assessed as inhibition of ATP-induced cytosolic calcium influx at 10 uM preincubated for 30 mins followed by ATP addition by Fluo-4 AM dye-based fluorescence assay relative to control; assay type: cell-based
T2 sequence (whole entry): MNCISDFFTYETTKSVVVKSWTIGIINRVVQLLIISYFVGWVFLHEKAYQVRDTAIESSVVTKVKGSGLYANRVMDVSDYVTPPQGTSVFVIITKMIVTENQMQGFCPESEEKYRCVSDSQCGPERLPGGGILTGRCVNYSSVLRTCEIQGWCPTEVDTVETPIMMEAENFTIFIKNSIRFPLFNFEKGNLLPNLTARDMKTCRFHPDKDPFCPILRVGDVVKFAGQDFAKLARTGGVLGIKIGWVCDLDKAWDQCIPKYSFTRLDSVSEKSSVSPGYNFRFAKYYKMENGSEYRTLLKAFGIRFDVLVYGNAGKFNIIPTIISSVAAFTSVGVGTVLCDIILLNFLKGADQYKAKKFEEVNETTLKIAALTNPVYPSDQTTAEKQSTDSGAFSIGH

[4] = molecular target: T1, P2X purinoceptor 1 (Homo sapiens); test: Antagonist activity P2X1 receptor in human platelets assessed as inhibition of ADP-induced platelet aggregation pre-incubated for 30 mins before ADP stimulation by aggregometry relative to control; assay type: cell-based
[5] = molecular target: T1, P2X purinoceptor 1 (Homo sapiens); test: Antagonist activity at non-desensitizing human P2X1 receptor ( P2X2/P2X1 chimera) expressed in human 1321N1 cells assessed as inhibition of ATP-induced calcium influx at 10 uM pre-incubated for 30 mins before ATP stimulation by FLIPR assay relative to control; assay type: cell-based
[6] = molecular target: T3, P2X purinoceptor 2 (Homo sapiens) (UniProt Q9UBL9); test: Antagonist activity at human P2X2 receptor expressed in human 1321N1 cells assessed as inhibition of ATP-induced cytosolic calcium influx at 10 uM preincubated for 30 mins followed by ATP addition by Fluo-4 AM dye-based fluorescence assay relative to control; assay type: cell-based
T3 sequence (whole entry): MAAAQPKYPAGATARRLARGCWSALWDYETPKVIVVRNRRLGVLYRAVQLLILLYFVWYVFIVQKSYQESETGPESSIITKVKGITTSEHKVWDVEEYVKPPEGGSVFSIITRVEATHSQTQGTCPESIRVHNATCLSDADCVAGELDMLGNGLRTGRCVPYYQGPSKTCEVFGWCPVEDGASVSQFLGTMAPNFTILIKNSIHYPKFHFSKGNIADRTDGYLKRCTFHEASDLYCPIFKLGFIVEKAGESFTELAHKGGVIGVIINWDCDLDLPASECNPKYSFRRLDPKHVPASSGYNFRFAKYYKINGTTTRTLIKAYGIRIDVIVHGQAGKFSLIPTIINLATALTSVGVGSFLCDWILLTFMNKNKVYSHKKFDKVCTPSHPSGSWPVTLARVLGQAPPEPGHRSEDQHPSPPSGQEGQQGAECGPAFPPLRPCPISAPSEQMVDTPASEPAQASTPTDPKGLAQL

[7] = molecular target: T1, P2X purinoceptor 1 (Homo sapiens); test: Antagonist activity at non-desensitizing human P2X1 receptor ( P2X2/P2X1 chimera) expressed in human 1321N1 cells assessed as inhibition of ATP-induced calcium influx at 1 uM pre-incubated for 30 mins before ATP stimulation by FLIPR assay relative to control; assay type: cell-based
P2X purinoceptor 3 = molecular target: T4, P2X purinoceptor 3 (Homo sapiens, UniProt P56373); test: Antagonist activity at human P2X3 receptor expressed in human 1321N1 cells assessed as inhibition of ATP-induced cytosolic calcium influx preincubated for 30 mins followed by ATP addition by Fluo-4 AM dye-based fluorescence assay; assay type: cell-based
T4 sequence (P56373 whole entry): T2 sequence (whole entry)

P2X purinoceptor 4 = molecular target: T5, P2X purinoceptor 4 (Homo sapiens, UniProt Q99571); test: Antagonist activity at human P2X4 receptor expressed in human 1321N1 cells assessed as inhibition of ATP-induced cytosolic calcium influx preincubated for 30 mins followed by ATP addition by Fluo-4 AM dye-based fluorescence assay; assay type: cell-based
T5 sequence (Q99571 whole entry): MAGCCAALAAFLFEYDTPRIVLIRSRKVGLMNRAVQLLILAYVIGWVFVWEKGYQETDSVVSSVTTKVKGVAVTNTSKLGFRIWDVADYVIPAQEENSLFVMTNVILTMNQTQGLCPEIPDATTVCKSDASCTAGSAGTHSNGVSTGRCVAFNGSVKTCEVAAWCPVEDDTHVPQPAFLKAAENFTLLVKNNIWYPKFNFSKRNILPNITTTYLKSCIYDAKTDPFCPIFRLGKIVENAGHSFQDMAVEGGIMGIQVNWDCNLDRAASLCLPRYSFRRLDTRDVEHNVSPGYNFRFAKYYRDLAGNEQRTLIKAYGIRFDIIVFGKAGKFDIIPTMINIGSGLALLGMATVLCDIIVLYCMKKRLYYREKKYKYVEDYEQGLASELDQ

P2X purinoceptor 1 [8] = molecular target: P2X purinoceptor 1 (Homo sapiens, UniProt P51575); test: (§1) Antagonist activity at non-desensitizing human P2X1 receptor ( P2X2/P2X1 chimera) expressed in human 1321N1 cells assessed as inhibition of ATP-induced calcium influx pre-incubated for 30 mins before ATP stimulation by FLIPR assay relative to control; assay type: cell-based
[9] = molecular target: T1, P2X purinoceptor 1 (Homo sapiens); test: as §1; assay type: cell-based
P2X purinoceptor 2 = molecular target: T6, P2X purinoceptor 2 (Homo sapiens, UniProt Q9UBL9); test: Antagonist activity at human P2X2 receptor expressed in human 1321N1 cells assessed as inhibition of ATP-induced cytosolic calcium influx preincubated for 30 mins followed by ATP addition by Fluo-4 AM dye-based fluorescence assay; assay type: cell-based
T6 sequence (Q9UBL9 whole entry): T3 sequence (whole entry)

[10] = molecular target: T1, P2X purinoceptor 1 (Homo sapiens); test: as §1, with “Negative allosteric modulator” for “Antagonist”, “of maximal response for” for “of”, “influx at 100 to 500 nM” for “influx”; assay type: cell-based
P2X purinoceptor 7 = molecular target: T7, P2X purinoceptor 7 (Homo sapiens, UniProt Q99572); test: Antagonist activity at human P2X7 receptor expressed in human 1321N1 cells assessed as inhibition of ATP-induced cytosolic calcium influx preincubated for 30 mins followed by ATP addition by Fluo-4 AM dye-based fluorescence assay; assay type: cell-based
T7 sequence (Q99572 whole entry): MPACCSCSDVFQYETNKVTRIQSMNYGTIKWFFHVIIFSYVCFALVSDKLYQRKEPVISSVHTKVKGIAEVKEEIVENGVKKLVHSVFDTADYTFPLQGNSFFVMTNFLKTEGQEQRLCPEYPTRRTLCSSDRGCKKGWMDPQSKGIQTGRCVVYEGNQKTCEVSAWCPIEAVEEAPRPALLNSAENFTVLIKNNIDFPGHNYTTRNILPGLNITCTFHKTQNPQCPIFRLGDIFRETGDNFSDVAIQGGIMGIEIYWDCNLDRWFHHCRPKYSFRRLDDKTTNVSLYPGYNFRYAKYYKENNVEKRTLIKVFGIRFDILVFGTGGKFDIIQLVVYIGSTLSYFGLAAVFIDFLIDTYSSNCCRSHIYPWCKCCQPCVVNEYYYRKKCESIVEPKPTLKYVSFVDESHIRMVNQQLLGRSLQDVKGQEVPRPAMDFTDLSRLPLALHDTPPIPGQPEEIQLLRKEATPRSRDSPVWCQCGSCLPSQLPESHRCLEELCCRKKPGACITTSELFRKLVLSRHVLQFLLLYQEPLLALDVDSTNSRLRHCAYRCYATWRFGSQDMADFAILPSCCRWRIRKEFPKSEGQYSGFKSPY

P2X purinoceptor 1 [11] = molecular target: T8, P2X purinoceptor 1 (Rattus norvegicus, UniProt P47824); test: Antagonist activity at rat P2X1 receptor
T8 sequence (P47824 whole entry): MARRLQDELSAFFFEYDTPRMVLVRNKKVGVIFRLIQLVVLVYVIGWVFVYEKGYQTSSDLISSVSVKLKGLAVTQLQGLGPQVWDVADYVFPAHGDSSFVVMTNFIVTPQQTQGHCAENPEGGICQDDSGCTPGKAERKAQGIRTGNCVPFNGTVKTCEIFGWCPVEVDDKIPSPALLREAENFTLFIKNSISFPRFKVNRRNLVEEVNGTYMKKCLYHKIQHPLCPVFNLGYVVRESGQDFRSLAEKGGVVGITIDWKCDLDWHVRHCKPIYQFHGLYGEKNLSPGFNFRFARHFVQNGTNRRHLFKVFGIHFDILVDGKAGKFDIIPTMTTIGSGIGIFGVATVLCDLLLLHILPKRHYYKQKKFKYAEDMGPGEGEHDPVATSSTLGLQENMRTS

[12] = molecular target: T9, P2X purinoceptor 4 (Homo sapiens) (UniProt Q99571); test: Antagonist activity at human P2X4 receptor expressed in human 1321N1 cells assessed as inhibition of ATP-induced cytosolic calcium influx at 10 uM preincubated for 30 mins followed by ATP addition by Fluo-4 AM dye-based fluorescence assay relative to control; assay type: cell-based
T9 sequence (whole entry): T5 sequence (Q99571 whole entry)

| Structure (SMILES) | inhibition [1] [%] | inhibition [2] [%] | inhibition [3] [%] | inhibition [4] [%] | inhibition [5] [%] | inhibition [6] [%] | inhibition [7] [%] | IC50 (P2X purinoceptor 3) [nM] | IC50 (P2X purinoceptor 4) [nM] | IC50 (P2X purinoceptor 1 [8]) [nM] | inhibition [9] | IC50 (P2X purinoceptor 2) [nM] | inhibition [10] | IC50 (P2X purinoceptor 7) [nM] | IC50 (P2X purinoceptor 1 [11]) [nM] | inhibition [12] [%] |
| --- | --- | --- | --- | --- | --- | --- | --- | --- | --- | --- | --- | --- | --- | --- | --- | --- |
| O=C(Nc1ccc(C(F)(F)F)cc1)c1cc(Cl)ccc1O | 7 | 6 | -6 | 23 | 53 | 3 | – | – | – | – | – | – | – | – | – | – |
| O=C(Nc1cc(C(F)(F)F)cc(C(F)(F)F)c1)c1cc(Cl)ccc1O [IMD-0354] | – | – | 11 | – | > 75 | -7 | > 40 | > 10000 | 156 | 19.2 | Dose-dependent effect | > 10000 | Active | 175 | – | – |
| Cc1ccc(C(=O)Nc2ccc(S(=O)(=O)O)c3cc(S(=O)(=O)O)cc(S(=O)(=O)O)c23)cc1NC(=O)c1cccc(NC(=O)Nc2cccc(C(=O)Nc3cc(C(=O)Nc4ccc(S(=O)(=O)O)c5cc(S(=O)(=O)O)cc(S(=O)(=O)O)c45)ccc3C)c2)c1 [SURAMIN] | – | – | – | – | > 90 | – | > 40 | – | – | – | – | – | – | – | 1000 to 1700 | – |
| O=C(Nc1cc(F)cc(F)c1)c1cc(Cl)ccc1O | 47 | 5 | 2 | 14 | 62 | 4 | – | > 10000 | 155 | 50.5 | – | > 10000 | – | 160 | – | – |
| O=C(Nc1cc(C(F)(F)F)cc(C(F)(F)F)c1)c1cccc(F)c1O | – | – | 38 | – | 80 | – | – | > 10000 | ≥ 10000 | 70.6 | – | > 10000 | Active | 857 | – | 49 |
